{"source": "patent US20200129450A1", "about": "“COMPOSITION COMPRISING OSMUNDACETONE OR PHARMACEUTICALLY ACCEPTABLE SALT THEREOF FOR PREVENTING OR TREATING BONE DISEASE” (KORPHARM CO., LTD., priority 2016, published 2020)", "key": {"mature osteoclasts": {"test_system": "mature osteoclasts", "assay": "Bone resorption assay (OsteoLyse Assay Kit) with mature osteoclasts", "type": "cell-based, mouse", "settings": "8 μM (IC50 concentration), mature osteoclasts treated for 3 days, normalized by cellular DNA", "description": "The quantitative measurement of in vitro osteoclast-mediated degradation of human bone collagen was carried out using the OsteoLyse™ Assay Kit (Lonza Walkersville, Inc. Walkersville, Md., USA) according to manufacturer's instructions.\nThis assay allows a direct measurement of the release of […] into the osteoclast resorption lacuna (Delaisse et al., 2003).\nBriefly, 2×10^4 mouse bone marrow cells prepared above were dispensed in 96-well OsteoLyse™ cell culture plate coated with europium-conjugated collagen.\nThe cells were incubated in 0.1 mL of complete α-MEM per well in the presence of M-CSF (60 ng/mL) and RANKL (150 ng/mL) in the conditions of 37° C. and 5% CO2 for 6 days. Thereafter, the medium was exchanged on day 3 of the dispensing.\nIn order to measure the ability to inhibit the mature osteoclastic functions, the medium was exchanged on day 6, and osmundacetone was added at an IC50 concentration obtained from TRAP analysis.\nAfter the mature osteoclasts were treated with osmundacetone for 3 days, 10 μL of a supernatant of the cell culture was taken, and placed in a second 96-well analysis plate containing fluorophore-Releasing reagent. The degraded collagen was measured using a time-resolved fluorescence fluorimeter, Wallac Victor (Perkin Elmer, Waltham, Mass., USA). […]"}, "[1]": {"test_system": "PC3 human prostate adenocarcinoma", "assay": "MTT assay cytotoxicity", "type": "cell-based", "settings": "PC3, 24 hours", "description": "(§1) HaCaT human epidermal keratinocytes, # ATCC PCS-200-011) were incubated using Dulbecco's modified Eagle's medium (DMEM, # DMEM-HPA, Capricorn Scientific, Ebsdorfergrund, Germany) in the conditions of 37° C. and 5% CO2. NIH3T3 mouse embryo fibroblasts (# KCLB 21658), RAW264.7 murine macrophages (preosteoclast cell line, # KCLB 40071), HCT116 human colon cancer cells (# KCLB 10247), PC3 human prostate adenocarcinoma cells (# KCLB 21435), HT1080 human fibrosarcoma cells (# KCLB 1121), and B16F10 mouse malignant melanoma cells (# KCLB 80008) were purchased from the Korean Cell Line Bank, and incubated using DMEM in the conditions of 37° C. and 5% C02.\n(§2) The compound isolated from Osmunda japonica, prepared in section 1 of <Example 1>, was investigated for cytotoxicity using MTT assay.\n(§3) MTT assay was as follows.\n(§4) Cells were incubated at 1×10^3 cells/well in a 96-well plate containing DMEM with 10% fetal bovine serum (FBS) at 5% CO2 and 37° C., and then osmundacetone was added to the cell medium, followed by incubation for 24 hours. Thereafter, 100 μL of MTT (0.5 mg/ml PBS) was administered, followed by incubation for 2 hours. Thereafter, the medium was removed from each well, and 100 μL of DMSO was added. After incubation for 10 minutes, the absorbance was measured using a microplate reader (SPCTRA MAX 340PC, Molecular Devices, USA) at 570 nm. The absorbance is an indicator showing the number of living cells, and calculated by the following equation. The reproducibility thereof was validated by three experiments.\n(§5) Cell proliferation (%)=OD550(sample)/OD550(control)"}, "[2]": {"test_system": "HaCaT human epidermal keratinocytes", "assay": "MTT assay cytotoxicity", "type": "cell-based", "settings": "24 hours, read-out: IC50 according to MTT assay", "description": "as §1, §2, §3, §4, §5"}, "[3]": {"test_system": "RAW264.7 mouse macrophage cell line", "assay": "MTT assay cytotoxicity", "type": "cell-based", "settings": "RAW264.7, 24 hours", "description": "as §1, §2, §3, §4, §5"}, "[4]": {"test_system": "ADMSC human Adipose-derived mesenchymal stem cells", "assay": "MTT assay cytotoxicity", "type": "cell-based", "settings": "24 hours, read-out: IC50 according to MTT assay", "description": "Human adipose-derived mesenchymal stem cells, ADMSCs (CEFO Bio, Seoul, Korea), were incubated using CB-ADMSC-GM (CEFO Bio, Seoul, Korea) in the conditions of 37° C. and 5% CO2.\nas §2, §3, §4, §5"}, "cancer cell lines": {"test_system": "cancer cell lines", "assay": "MTT assay cytotoxicity, cancer cell lines (summary)", "type": "cell-based", "settings": "summary range", "description": "as §3\nas §4, with “equation.” for “equation. The reproducibility thereof was validated by three experiments.”\nas §5"}, "[5]": {"assay": "MTT assay cytotoxicity, cancer cell lines (summary)", "type": "cell-based", "settings": "human cancer cell lines (AGS, PC3) compared with human normal cell lines (HaCaT, ADMSC); read-out: cancer selectivity index in cell cytotoxicity", "description": "as §3\nas §4, with “equation.” for “equation. The reproducibility thereof was validated by three experiments.”\nas §5"}, "[6]": {"test_system": "AGS human stomach adenocarcinoma", "assay": "MTT assay cytotoxicity", "type": "cell-based", "settings": "24 hours", "description": "(§6) AGS human stomach adenocarcinoma cells (# KCLB 21739), A549 human lung carcinoma cells (# KCLB 10185), Caki-1 human kidney carcinoma cells (# KCLB 30046), T24 human bladder carcinoma cells (# KCLB 30004), TC-1 P3 HPV-16E7-expressing mouse pulmonary epithelial cells, MHC class I (provided by Tae-Woo Kim, a professor of Korea University) were incubated using RPMI (Rosewell Park Memorial Institute) 1640 (# RPMI-A, Capricorn Scientific, Ebsdorfergrund, Germany) in the conditions of 37° C. and 5% CO2.\nas §2, §3\nas §4, with “experiments. […]” for “experiments.”"}, "[7]": {"test_system": "A549 human lung carcinoma", "assay": "MTT assay cytotoxicity", "type": "cell-based", "settings": "cancer cell", "description": "as §6, §2, §3\nas §4, with “experiments. […]” for “experiments.”"}, "[8]": {"settings": "US toxic substance regulatory agencies, Not Listed; cited from earlier work"}, "normal cell lines": {"test_system": "normal cell lines", "assay": "MTT assay cytotoxicity, normal cell lines (summary)", "type": "cell-based", "description": "as §2, §3, §4, §5"}}}
{"smiles": "CC(=O)/C=C/c1ccc(O)c(O)c1", "note": "[Osmundacetone, (3E)-4-(3,4-dihydroxyphenyl)-3-buten-2-one]", "values": [{"measurement": "bone resorption function of mature osteoclasts, % that of non-treated osteoclasts", "setting": "mature osteoclasts", "result": "58.7±13", "unit": "%"}, {"measurement": "LD50 (MTT assay)", "setting": "[1]", "result": "65.5 ± 8.7", "unit": "µM"}, {"measurement": "IC50", "setting": "[2]", "result": "3.51 ± 0.11", "unit": "mM"}, {"measurement": "LD50 (MTT assay)", "setting": "[3]", "result": "507 ± 98", "unit": "µM"}, {"measurement": "IC50", "setting": "[4]", "result": 2.76, "unit": "mM"}, {"measurement": "LD50 for several cancer cell lines", "setting": "cancer cell lines", "result": "50 to 70", "unit": "µM"}, {"measurement": "selectivity ratio at 24 h", "setting": "[5]", "result": "45 to 60"}, {"measurement": "LD50 (MTT assay)", "setting": "[6]", "result": "59.9 ± 6.1", "unit": "µM"}, {"measurement": "LD50 (μM) Based on MIT Assay", "setting": "[7]", "result": ">5,000 μM"}, {"measurement": "tests of human toxicity, irritation, carcinogenicity, environmental toxicity", "setting": "[8]", "result": "harmless and safe"}, {"measurement": "cell cytotoxicity on normal cell lines", "setting": "normal cell lines; judged against IC50 of less than 100 μM as active", "result": "did not show cell cytotoxicity"}, {"measurement": "LD50 for normal cell lines", "setting": "normal cell lines; summary range", "result": "2,500-5,000 μM"}]}
